Two compounds from patent EP0664704B1, “USE OF DOPAMINE AGONISTS TO ACTIVATE GAMMA-[…]” (SCHERING AKTIENGESELLSCHAFT, priority 1992, dated 1994) can be followed below.

For one series, the system named is Tumoren. Kind of series: Two-year treatment of rodents: tumour frequency and severity, survival. The conditions noted are these: male and female mice and rats, various doses over 2 years; for Häufigkeit und Schwere von verschiedenen Tumoren: partly dose-dependent, leukaemias, lymphomas, tumours of mammae, pituitary, ovaries. The format is in vivo, Mäusen und Ratten. From the text: In vivo-Untersuchungen an Nager-Gruppen von männlichen und weiblichen Mäusen und Ratten wurden mit verschiedenen Dosen von Lisurid und Tergurid über 2 Jahre behandelt. […] Dies läßt eine therapeutisch erwünschte lokale Freisetzung dieser Faktoren bei niederer Dosierung von Dopaminagonisten erwarten, die erst bei excessiver Dosierung zur Ausschwemmung ins Blut gelangt und damit die Nebenwirkung einer direkten IFN-γ-Anwendung bewirkt.

The next series has as its system IFN-γ. The experiment in a line: PHA-stimulated IFN-γ release in blood of patients treated with subcutaneous lisuride, ELISA of supernatant. The format is in vivo, Patienten. The protocol:
(§1) Wir untersuchten die mitogen-induzierte Zytokinfreisetzung von 18 Patienten, die wegen M. Parkinson (n=13) oder Dystonie (n=5) mit subkutanem Lisurid behandelt wurden. 18 Patienten wurden mit 11 gesunden altersgleichen Kontrollen verglichen. Nach mitogener Stimulation mit 50 µl Phythämagglutinin (PHA) (5 µg/ml) über 24 h (TNF-α) bzw. 72h (IFN-γ) wurden TNF-α und IFN-γ im Überstand mit einem Elisa Assay (Gallati 1987) bestimmt: Da die Daten nicht normal verteilt sind, wurde der Mann-Whitney-Test zur Analyse der Gruppenmittelwerte gerechnet. Es fanden sich folgende Ergebnisse:
(§2) Es wurde dieselbe Lisurid-Gruppe (n=18) wie o.a. mit zwei Gruppen gesunder Freiwilliger verglichen: Einer Gruppe junger (Alter unter 50 Jahre) und mit einer Gruppe älterer Gesunder (Alter über 65 Jahre). Die Zytokinmessung und statistische Auswertung erfolgte wie oben erwähnt. […] Dies legt den Schluß nahe, daß die alterskorreliert abnehmende IFN-γ und TNF-α Produktion durch dopaminerge Therapie antagonisiert werden kann.
(§3) Den Daten ist zu entnehmen, daß durch die Behandlung mit Lisurid nach Stimulation eine vermehrte Freisetzung von IFN-γ und TNF-α erfolgt. Die Freisetzung der Cytokine ist erst in vitro in einer Kurzzeit-Kultur des Vollblutes entstanden. In der Kontrollgruppe ohne PHA Zugabe ließ sich kein IFN-γ nachweisen. […]

In a further series the test system is TNF-α. The experiment in a line: PHA-stimulated TNF-α release in blood of patients treated with subcutaneous lisuride, ELISA of supernatant. The format is in vivo, Patienten. As for the experimental part: as §1, §2, §3
The subject of the next series is Zytokin-Freisetzung. The experiment in a line: In vitro cytokine release in whole-blood assays co-incubated with lisuride and PHA. The format is cell-based, gesunden jungen Freiwilligen. The conditions noted are these: whole blood of 10 healthy young volunteers; without lisuride vs low, therapeutic and toxic lisuride concentration, together with PHA. As for the experimental part:
as §1
(§4) Von 10 gesunden jungen Freiwilligen wurden Vollblut-Assays (s.o.) mit 4 verschiedenen Konzentrationen von Lisurid zusammen mit dem Stimulans (PHA) inkubiert. […] Dies läßt vermuten, daß es sich bei den Patientendaten nicht um kurzzeitige Effekte der Substanz auf die immunkompetenten Zellen (vor allem T-Lymphozyten und NK-Zellen) handelt. Vielmehr werden über Rezeptor/postrezeptorische Mechanismen Effekte auf die Freisetzung und/oder Synthese von IFN-γ und anderen Faktoren vermittelt. Auch ein direkter oder indirekter Effekt auf das Genom ist möglich. Für die therapeutische Anwendung erwünscht ist die beobachtete Anreicherung von Dopaminagonisten in den Membranen von weißen Blutzellen, wie sie im Falle von Lisurid durch die UV-Fluoreszenz dieses Moleküls nachweisbar ist.

For series [1], the system named is Membranen von weißen Blutzellen. The experiment in a line: Accumulation in membranes of white blood cells, detected by UV fluorescence. The conditions noted are these: UV fluorescence of the molecule.
Text: as §4

Series [2] can be described thus: Six-month continuous s.c. infusion at extremely high dose in monkeys. The conditions noted are these: monkey, 1 mg/kg/Tag s.c. infused continuously over 6 months (10-fold maximal human dose). The format is in vivo, Affen.
Setting [3] is: lisuride group (n=18, median age 61) vs young healthy group (under 50 years) and older healthy group (over 65 years).

For `CCN(CC)C(=O)N[C@H]1C[C@@H]2c3cccc4[nH]cc(c34)C[C@H]2N(C)C1` [Tergurid], in the series on Tumoren, the “Anteil überlebender Tiere” value is “signifikante Erhöhung” and the “Häufigkeit und Schwere von verschiedenen Tumoren” value was “signifikante Reduktion”.

Turning to `CCN(CC)C(=O)NC1C=C2c3cccc4[nH]cc(c34)CC2N(C)C1` (centres unmarked) [Lisurid], in the series with IFN-γ (setting [3]), the “IFN-γ Produktion nach mitogener Stimulation” value is given as “signifikant erhöht”. In addition, in the series on IFN-γ (lisuride-treated patients (n=18, M. Parkinson or Dystonie) vs 11 healthy age-matched controls, PHA 72 h, Mann-Whitney p=0.039), the “IFN-γ Freisetzung nach PHA-Stimulation” value is on record as “signifikant erhöht”. Also, in the series with TNF-α (setting [3]), the “α-TNF Produktion nach mitogener Stimulation” value is given as “signifikant erhöht”. For the same compound, in the series on TNF-α (lisuride-treated patients (n=18) vs 11 healthy age-matched controls, PHA 24 h, Mann-Whitney p=0.055), the “TNF-α Freisetzung” value was “deutlich erhöht”. Moreover, in the series with Zytokin-Freisetzung, the “Zytokin-Freisetzung bei Koinkubation mit Lisurid” value is reported as “keine Unterschiede”. Also, the “Anreicherung in den Membranen von weißen Blutzellen” value in series [1] was “nachweisbar”. Further, in the series with Tumoren, the “Anteil überlebender Tiere” value is given as “signifikante Erhöhung” and the “Häufigkeit und Schwere von verschiedenen Tumoren” value is on record as “signifikante Reduktion”. Moreover, the “Befunde bei extrem hoher parenteraler Applikation” value in series [2] is reported as “wie sie für eine Überproduktion oder Freisetzung von IFN-γ und vergleichbarer Substanzen typisch sind”.
